Test system: Cynomolgus monkey
Test: not given
Details: in vivo, iv, 1 mg/kg

Row | SMILES | AUC
1 | Cc1cc(CN2C(=O)C(C3=NS(=O)(=O)c4cc(NS(C)(=O)=O)ccc4N3)=C(O)[C@@H]3[C@H]4CC[C@H](C4)[C@@H]32)ccc1F | 25000 ng·h/mL
2 | CS(=O)(=O)Nc1ccc2c(c1)S(=O)(=O)N=C(C1=C(O)[C@@H]3[C@@H]([C@H]4CC[C@@H]3O4)N(Cc3ccc(F)cc3)C1=O)N2 | 2650 ng·h/mL
3 | CS(=O)(=O)Nc1ccc2c(c1)S(=O)(=O)N=C(C1=C(O)C3C4CCC(C4)C3N(Cc3ccc(F)cc3)C1=O)N2 (racemic; 2a) | 63900 ng·h/mL
4 | CS(=O)(=O)Nc1ccc2c(c1)S(=O)(=O)N=C(C1=C(O)C3C4CCC(C4)C3N(Cc3ccc(F)cc3)C1=O)N2 (racemic; 2b) | 5500 ng·h/mL
5 | CS(=O)(=O)Nc1ccc2c(c1)S(=O)(=O)N=C(C1=C(O)[C@@H]3[C@H]4CC[C@H](C4)[C@@H]3N(Cc3ccc(F)cc3)C1=O)N2 [SETROBUVIR] | 94900 ng·h/mL

Test system: Cynomolgus monkey
Test: (§1) Oral bioavailability in cynomolgus monkey at 1 mg/kg
Format: ADME, organism-based, Macaca fascicularis
Details: in vivo

Row | SMILES | F
6 | CS(=O)(=O)Nc1ccc2c(c1)S(=O)(=O)N=C(C1=C(O)C3C4CCC(C4)C3N(Cc3ccc(F)cc3)C1=O)N2 (racemic; 2a) | 48%
7 | CS(=O)(=O)Nc1ccc2c(c1)S(=O)(=O)N=C(C1=C(O)C3C4CCC(C4)C3N(Cc3ccc(F)cc3)C1=O)N2 (racemic; 2b) | 25%

Test system: not listed separately
Test: as §1
Format: ADME, organism-based, Macaca fascicularis
Details: in vivo

Row | SMILES | bioavailability
8 | Cc1cc(CN2C(=O)C(C3=NS(=O)(=O)c4cc(NS(C)(=O)=O)ccc4N3)=C(O)[C@@H]3[C@H]4CC[C@H](C4)[C@@H]32)ccc1F | 35%
9 | CS(=O)(=O)Nc1ccc2c(c1)S(=O)(=O)N=C(C1=C(O)[C@@H]3[C@@H]([C@H]4CC[C@@H]3O4)N(Cc3ccc(F)cc3)C1=O)N2 | 3%
10 | CS(=O)(=O)Nc1ccc2c(c1)S(=O)(=O)N=C(C1=C(O)[C@@H]3[C@H]4CC[C@H](C4)[C@@H]3N(Cc3ccc(F)cc3)C1=O)N2 [SETROBUVIR] | 52%

Test system: not given
Test: not given
Details: rhesus monkey, microsomes, 1 h, 5 µM

Row | SMILES | Stability
11 | CS(=O)(=O)Nc1ccc2c(c1)S(=O)(=O)N=C(C1=C(O)C3C4CCC(C4)C3N(Cc3ccc(F)cc3)C1=O)N2 (racemic; 2b) | 92%

Test system: not listed separately
Test: physchem
Details: aqueous medium, pH 7.5
Description: Aqueous solubility at pH 7.5

Row | SMILES | solubility
12 | CS(=O)(=O)Nc1ccc2c(c1)S(=O)(=O)N=C(C1=C(O)[C@@H]3[C@@H]([C@H]4CC[C@@H]3O4)N(Cc3ccc(F)cc3)C1=O)N2 | > 100 µM

Test system: not listed separately
Test: in vitro
Details: human, liver microsomes, t1/2

Row | SMILES | half-life at 1 µM
13 | Cc1cc(CN2C(=O)C(C3=NS(=O)(=O)c4cc(NS(C)(=O)=O)ccc4N3)=C(O)[C@@H]3[C@H]4CC[C@H](C4)[C@@H]32)ccc1F | > 1 h
14 | CS(=O)(=O)Nc1ccc2c(c1)S(=O)(=O)N=C(C1=C(O)[C@@H]3[C@@H]([C@H]4CC[C@@H]3O4)N(Cc3ccc(F)cc3)C1=O)N2 | > 1 h

Same assay, conditions: human, microsomes, t1/2

Row | SMILES | half-life at 1 µM
15 | CS(=O)(=O)Nc1ccc2c(c1)S(=O)(=O)N=C(C1=C(O)C3C4CCC(C4)C3N(Cc3ccc(F)cc3)C1=O)N2 (racemic; 2a) | 0.567 h
16 | CS(=O)(=O)Nc1ccc2c(c1)S(=O)(=O)N=C(C1=C(O)[C@@H]3[C@H]4CC[C@H](C4)[C@@H]3N(Cc3ccc(F)cc3)C1=O)N2 [SETROBUVIR] | > 1 h

Test system: not listed separately
Test: in vitro
Details: human, Caco-2
Description: Apparent permeability from apical side to basolateral side of human Caco-2 cells at 10 uM after 3 hrs

Row | SMILES | Papp A→B at 3 h, 10 µM
17 | CS(=O)(=O)Nc1ccc2c(c1)S(=O)(=O)N=C(C1=C(O)[C@@H]3[C@@H]([C@H]4CC[C@@H]3O4)N(Cc3ccc(F)cc3)C1=O)N2 | 0.08 ×10⁻⁶ cm/s

Test system: not listed separately
Test: Clearance in cynomolgus monkey at 1 mg/kg, iv
Format: ADME, organism-based, Macaca fascicularis
Set-up: dose 1 mg/kg, route intravenous
Details: in vivo

Row | SMILES | clearance
18 | Cc1cc(CN2C(=O)C(C3=NS(=O)(=O)c4cc(NS(C)(=O)=O)ccc4N3)=C(O)[C@@H]3[C@H]4CC[C@H](C4)[C@@H]32)ccc1F | 0.67 mL/min/kg
19 | CS(=O)(=O)Nc1ccc2c(c1)S(=O)(=O)N=C(C1=C(O)[C@@H]3[C@@H]([C@H]4CC[C@@H]3O4)N(Cc3ccc(F)cc3)C1=O)N2 | 6.3 mL/min/kg
20 | CS(=O)(=O)Nc1ccc2c(c1)S(=O)(=O)N=C(C1=C(O)[C@@H]3[C@H]4CC[C@H](C4)[C@@H]3N(Cc3ccc(F)cc3)C1=O)N2 [SETROBUVIR] | 0.18 mL/min/kg

Test system: not listed separately
Test: Cytotoxicity against human HuH7 cells assessed as GAPDH release
Format: cell-based, Huh-7
Details: not given

Row | SMILES | CC50
21 | CS(=O)(=O)Nc1ccc2c(c1)S(=O)(=O)N=C(C1=C(O)[C@@H]3[C@@H]([C@H]4CC[C@@H]3O4)N(Cc3ccc(F)cc3)C1=O)N2 | > 1000 nM
22 | CS(=O)(=O)Nc1ccc2c(c1)S(=O)(=O)N=C(C1=C(O)C3C4CCC(C4)C3N(Cc3ccc(F)cc3)C1=O)N2 (racemic; 2a) | > 1000 nM
23 | CS(=O)(=O)Nc1ccc2c(c1)S(=O)(=O)N=C(C1=C(O)[C@@H]3[C@H]4CC[C@H](C4)[C@@H]3N(Cc3ccc(F)cc3)C1=O)N2 [SETROBUVIR] | > 100000 nM

Test system: Hepatitis C virus
Test: microbe, parasite or virus in culture
Format: functional, organism-based, Hepacivirus hominis, genotype 1b, Huh-luc/neo-ET
Details: Hepatitis C virus, genotype 1b, Huh-luc/neo-ET, 72 h
Description: Antiviral activity against HCV-1b infected human Huh-luc/neo-ET replicon cells after 72 hrs by luciferase based replicon assay

Row | SMILES | EC50
24 | Cc1cc(CN2C(=O)C(C3=NS(=O)(=O)c4cc(NS(C)(=O)=O)ccc4N3)=C(O)[C@@H]3[C@H]4CC[C@H](C4)[C@@H]32)ccc1F | 6 nM
25 | CS(=O)(=O)Nc1ccc2c(c1)S(=O)(=O)N=C(C1=C(O)[C@@H]3[C@@H]([C@H]4CC[C@@H]3O4)N(Cc3ccc(F)cc3)C1=O)N2 | 6 nM
26 | CS(=O)(=O)Nc1ccc2c(c1)S(=O)(=O)N=C(C1=C(O)[C@@H]3[C@H]4CC[C@H](C4)[C@@H]3N(Cc3ccc(F)cc3)C1=O)N2 [SETROBUVIR] | 3 nM

Same assay, conditions: huh-luc/neo-et

Row | SMILES | EC50
27 | CS(=O)(=O)Nc1ccc2c(c1)S(=O)(=O)N=C(C1=C(O)C3C4CCC(C4)C3N(Cc3ccc(F)cc3)C1=O)N2 (racemic; 2a) | 5 nM
28 | CS(=O)(=O)Nc1ccc2c(c1)S(=O)(=O)N=C(C1=C(O)C3C4CCC(C4)C3N(Cc3ccc(F)cc3)C1=O)N2 (racemic; 2b) | 2 nM

Test system: Cynomolgus monkey
Test: not given
Details: in vivo, po, 1 mg/kg

Row | SMILES | AUC
29 | Cc1cc(CN2C(=O)C(C3=NS(=O)(=O)c4cc(NS(C)(=O)=O)ccc4N3)=C(O)[C@@H]3[C@H]4CC[C@H](C4)[C@@H]32)ccc1F | 8780 ng·h/mL
30 | CS(=O)(=O)Nc1ccc2c(c1)S(=O)(=O)N=C(C1=C(O)[C@@H]3[C@@H]([C@H]4CC[C@@H]3O4)N(Cc3ccc(F)cc3)C1=O)N2 | 90 ng·h/mL
31 | CS(=O)(=O)Nc1ccc2c(c1)S(=O)(=O)N=C(C1=C(O)C3C4CCC(C4)C3N(Cc3ccc(F)cc3)C1=O)N2 (racemic; 2a) | 30700 ng·h/mL
32 | CS(=O)(=O)Nc1ccc2c(c1)S(=O)(=O)N=C(C1=C(O)C3C4CCC(C4)C3N(Cc3ccc(F)cc3)C1=O)N2 (racemic; 2b) | 1350 ng·h/mL
33 | CS(=O)(=O)Nc1ccc2c(c1)S(=O)(=O)N=C(C1=C(O)[C@@H]3[C@H]4CC[C@H](C4)[C@@H]3N(Cc3ccc(F)cc3)C1=O)N2 [SETROBUVIR] | 49400 ng·h/mL

Test system: not listed separately
Test: in vitro
Details: rhesus monkey, liver microsomes
Description: Metabolic stability in monkey liver microsomes assessed as half life at 5 uM

Row | SMILES | half-life at 5 µM
34 | Cc1cc(CN2C(=O)C(C3=NS(=O)(=O)c4cc(NS(C)(=O)=O)ccc4N3)=C(O)[C@@H]3[C@H]4CC[C@H](C4)[C@@H]32)ccc1F | 0.817 h
35 | CS(=O)(=O)Nc1ccc2c(c1)S(=O)(=O)N=C(C1=C(O)[C@@H]3[C@@H]([C@H]4CC[C@@H]3O4)N(Cc3ccc(F)cc3)C1=O)N2 | > 1 h

Same assay, conditions: rhesus monkey, microsomes

Row | SMILES | half-life at 5 µM
36 | CS(=O)(=O)Nc1ccc2c(c1)S(=O)(=O)N=C(C1=C(O)C3C4CCC(C4)C3N(Cc3ccc(F)cc3)C1=O)N2 (racemic; 2a) | > 1 h
37 | CS(=O)(=O)Nc1ccc2c(c1)S(=O)(=O)N=C(C1=C(O)[C@@H]3[C@H]4CC[C@H](C4)[C@@H]3N(Cc3ccc(F)cc3)C1=O)N2 [SETROBUVIR] | > 1 h

Test system: not listed separately
Test: in vitro
Details: human, liver microsomes
Description: Metabolic stability in human liver microsomes assessed as compound remaining after 60 mins at 1 uM

Row | SMILES | remaining at 1 h, 1 µM
38 | Cc1cc(CN2C(=O)C(C3=NS(=O)(=O)c4cc(NS(C)(=O)=O)ccc4N3)=C(O)[C@@H]3[C@H]4CC[C@H](C4)[C@@H]32)ccc1F | 70%
39 | CS(=O)(=O)Nc1ccc2c(c1)S(=O)(=O)N=C(C1=C(O)[C@@H]3[C@@H]([C@H]4CC[C@@H]3O4)N(Cc3ccc(F)cc3)C1=O)N2 | 100%

Same assay, conditions: human, microsomes

Row | SMILES | remaining at 1 h, 1 µM
40 | CS(=O)(=O)Nc1ccc2c(c1)S(=O)(=O)N=C(C1=C(O)C3C4CCC(C4)C3N(Cc3ccc(F)cc3)C1=O)N2 (racemic; 2b) | 73%
41 | CS(=O)(=O)Nc1ccc2c(c1)S(=O)(=O)N=C(C1=C(O)[C@@H]3[C@H]4CC[C@H](C4)[C@@H]3N(Cc3ccc(F)cc3)C1=O)N2 [SETROBUVIR] | 75%

Test system: Hepatitis C virus
Test: microbe, parasite or virus in culture
Format: functional, organism-based, Hepacivirus hominis, subtype 1a, Huh-lunet
Details: Hepatitis C virus, subtype 1a, Huh-lunet, 96 h
Description: Antiviral activity against HCV-1a infected in human Huh-lunet cells after 4 days by luciferase based replicon assay

Row | SMILES | EC50
42 | Cc1cc(CN2C(=O)C(C3=NS(=O)(=O)c4cc(NS(C)(=O)=O)ccc4N3)=C(O)[C@@H]3[C@H]4CC[C@H](C4)[C@@H]32)ccc1F | 34 nM
43 | CS(=O)(=O)Nc1ccc2c(c1)S(=O)(=O)N=C(C1=C(O)[C@@H]3[C@@H]([C@H]4CC[C@@H]3O4)N(Cc3ccc(F)cc3)C1=O)N2 | 66 nM
44 | CS(=O)(=O)Nc1ccc2c(c1)S(=O)(=O)N=C(C1=C(O)[C@@H]3[C@H]4CC[C@H](C4)[C@@H]3N(Cc3ccc(F)cc3)C1=O)N2 [SETROBUVIR] | 18 nM

Same assay, conditions: huh-lunet

Row | SMILES | EC50
45 | CS(=O)(=O)Nc1ccc2c(c1)S(=O)(=O)N=C(C1=C(O)C3C4CCC(C4)C3N(Cc3ccc(F)cc3)C1=O)N2 (racemic; 2a) | 330 nM
46 | CS(=O)(=O)Nc1ccc2c(c1)S(=O)(=O)N=C(C1=C(O)C3C4CCC(C4)C3N(Cc3ccc(F)cc3)C1=O)N2 (racemic; 2b) | 91 nM

Test system: not listed separately
Test: in vitro
Details: rhesus monkey, liver microsomes, Stability
Description: Metabolic stability in monkey liver microsomes assessed as compound remaining after 60 mins at 5 uM

Row | SMILES | remaining at 1 h, 5 µM
47 | CS(=O)(=O)Nc1ccc2c(c1)S(=O)(=O)N=C(C1=C(O)[C@@H]3[C@@H]([C@H]4CC[C@@H]3O4)N(Cc3ccc(F)cc3)C1=O)N2 | 100%

Same assay, conditions: rhesus monkey, microsomes, Stability

Row | SMILES | remaining at 1 h, 5 µM
48 | CS(=O)(=O)Nc1ccc2c(c1)S(=O)(=O)N=C(C1=C(O)C3C4CCC(C4)C3N(Cc3ccc(F)cc3)C1=O)N2 (racemic; 2a) | 91%
49 | CS(=O)(=O)Nc1ccc2c(c1)S(=O)(=O)N=C(C1=C(O)[C@@H]3[C@H]4CC[C@H](C4)[C@@H]3N(Cc3ccc(F)cc3)C1=O)N2 [SETROBUVIR] | 98%
